Results reported in US8242086B2, “Methods and compositions for treating disorders caused by a deficiency in a gene product of a CLN gene” (Duke University, priority 2008, dated 2012).

System: CLN3-deficient (JNCL) cells
Assay: Growth of CLN3-deficient (JNCL) cells treated with GalCer, Trypan blue dye exclusion
Type: cell-based, human
Method: Cell Culture. Lymphoblasts are grown at 37° C. and in 5% CO2 in RPMI 1640 medium (Sigma-Aldrich, St Louis, Mo.)/10% fetal bovine serum and 1% antibiotic/antimycotic. Immortalized lymphoblast cell lines originally obtained from JNCL and other NCL patients and normal donors, were used for all experiments. Fibroblasts from normal and mnd (CLN8-deficient) mice were also used. All JNCL lymphoblasts used are homozygous for the 1.02 kb deletion in the genomic DNA.
Treatment of CLN3-deficient (JNCL) cells with GalCer increases growth rates. 0.1 million CLN3−/− cells were plated per well in 6 well plates. harvested and counted at 24, 48, 72 and 96 hours. Numbers of viable cells were determined with Trypan blue dye exclusion.

galactosylceramide [GalCer]
growth of JNCL cells (GalCer 50 ng/ml, counted at 24, 48, 72 and 96 hours): restored growth
growth of JNCL cells (GalCer 100 ng/ml (doubled concentration)): no effect
